Experimental data as given in ChEMBL document CHEMBL1201862, “PubChem BioAssay data set” (2004).
Each block holds one compound with its values, some of them ahead of it. Activity calls are given as the source filed them. Cut-off read from the data, not from the text of the source, for most assays here: actives have a measured EC50 and inactives only a lower limit.

Legend:
[1] = luciferase reporter signal suppression in cells – H4 neuroglioma cells, luminescence, dose response (AID 1990); assay type: functional, cell-based
[2] = biological target: T1, Zinc finger protein mex-5 (Caenorhabditis elegans, UniProt Q9XUB2); test: potency of MEX-5 RNA-binding blockers – biochemical, C. elegans, fluorescence polarization, dose response (AID 1960)
T1 sequence (Q9XUB2 whole entry): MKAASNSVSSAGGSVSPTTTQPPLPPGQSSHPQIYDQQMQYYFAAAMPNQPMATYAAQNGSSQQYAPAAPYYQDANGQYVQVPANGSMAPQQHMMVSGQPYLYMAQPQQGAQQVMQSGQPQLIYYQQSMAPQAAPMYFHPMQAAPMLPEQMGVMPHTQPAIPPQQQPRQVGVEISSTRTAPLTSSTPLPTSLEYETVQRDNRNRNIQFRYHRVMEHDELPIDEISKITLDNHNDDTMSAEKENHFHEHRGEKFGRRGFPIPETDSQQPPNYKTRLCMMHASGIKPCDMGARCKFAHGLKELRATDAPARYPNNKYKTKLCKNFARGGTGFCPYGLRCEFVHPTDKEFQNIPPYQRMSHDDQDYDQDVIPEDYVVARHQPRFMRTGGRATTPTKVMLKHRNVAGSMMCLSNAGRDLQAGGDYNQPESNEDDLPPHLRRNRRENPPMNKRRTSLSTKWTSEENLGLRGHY

Hexokinase HKDC1 = biological target: T2, Hexokinase HKDC1 (Homo sapiens, UniProt Q2TB90); test: activation of HKDC1 glucose phosphorylation – biochemical, W721R variant, dose response (AID 504730); assay type: functional
T2 sequence (Q2TB90 whole entry): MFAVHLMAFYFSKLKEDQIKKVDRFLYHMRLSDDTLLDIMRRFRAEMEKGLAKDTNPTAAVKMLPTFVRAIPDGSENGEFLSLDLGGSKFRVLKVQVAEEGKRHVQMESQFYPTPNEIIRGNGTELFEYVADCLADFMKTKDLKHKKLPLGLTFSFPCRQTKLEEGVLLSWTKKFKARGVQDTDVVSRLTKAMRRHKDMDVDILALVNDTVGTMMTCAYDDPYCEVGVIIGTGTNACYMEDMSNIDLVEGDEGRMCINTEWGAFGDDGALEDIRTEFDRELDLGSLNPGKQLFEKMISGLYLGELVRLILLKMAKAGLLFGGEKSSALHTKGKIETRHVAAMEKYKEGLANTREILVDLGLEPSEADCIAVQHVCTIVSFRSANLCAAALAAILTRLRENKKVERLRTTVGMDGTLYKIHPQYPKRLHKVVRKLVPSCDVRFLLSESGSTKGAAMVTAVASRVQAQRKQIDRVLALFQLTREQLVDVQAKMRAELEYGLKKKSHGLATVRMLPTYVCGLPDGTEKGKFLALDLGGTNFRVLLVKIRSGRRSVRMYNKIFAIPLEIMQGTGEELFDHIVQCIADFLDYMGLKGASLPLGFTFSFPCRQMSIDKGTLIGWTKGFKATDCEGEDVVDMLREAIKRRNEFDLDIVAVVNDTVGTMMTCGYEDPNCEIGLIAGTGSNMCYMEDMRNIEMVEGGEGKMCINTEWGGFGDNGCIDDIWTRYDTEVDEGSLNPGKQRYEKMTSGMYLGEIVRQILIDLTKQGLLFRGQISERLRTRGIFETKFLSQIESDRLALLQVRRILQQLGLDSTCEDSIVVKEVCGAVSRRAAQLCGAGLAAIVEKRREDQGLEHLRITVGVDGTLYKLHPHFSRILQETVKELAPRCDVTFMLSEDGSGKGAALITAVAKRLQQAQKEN

[3] = biological target: T3, Mitochondrial peptide methionine sulfoxide reductase (Bos taurus, UniProt P54149); test: Absorbance-based biochemical high throughput dose response assay for activators of Methionine sulfoxide reductase A (MsrA).; assay type: functional
T3 sequence (P54149 whole entry): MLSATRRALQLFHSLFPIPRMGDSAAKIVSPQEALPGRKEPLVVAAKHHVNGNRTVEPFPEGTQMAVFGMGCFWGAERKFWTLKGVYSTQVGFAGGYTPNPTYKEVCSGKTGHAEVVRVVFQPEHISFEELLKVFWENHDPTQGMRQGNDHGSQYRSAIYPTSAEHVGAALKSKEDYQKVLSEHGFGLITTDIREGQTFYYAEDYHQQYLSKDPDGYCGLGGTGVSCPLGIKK

[4] = biological target: T4, Apoptotic protease-activating factor 1 (Homo sapiens, UniProt O14727); assay type: functional
T4 sequence (O14727 whole entry): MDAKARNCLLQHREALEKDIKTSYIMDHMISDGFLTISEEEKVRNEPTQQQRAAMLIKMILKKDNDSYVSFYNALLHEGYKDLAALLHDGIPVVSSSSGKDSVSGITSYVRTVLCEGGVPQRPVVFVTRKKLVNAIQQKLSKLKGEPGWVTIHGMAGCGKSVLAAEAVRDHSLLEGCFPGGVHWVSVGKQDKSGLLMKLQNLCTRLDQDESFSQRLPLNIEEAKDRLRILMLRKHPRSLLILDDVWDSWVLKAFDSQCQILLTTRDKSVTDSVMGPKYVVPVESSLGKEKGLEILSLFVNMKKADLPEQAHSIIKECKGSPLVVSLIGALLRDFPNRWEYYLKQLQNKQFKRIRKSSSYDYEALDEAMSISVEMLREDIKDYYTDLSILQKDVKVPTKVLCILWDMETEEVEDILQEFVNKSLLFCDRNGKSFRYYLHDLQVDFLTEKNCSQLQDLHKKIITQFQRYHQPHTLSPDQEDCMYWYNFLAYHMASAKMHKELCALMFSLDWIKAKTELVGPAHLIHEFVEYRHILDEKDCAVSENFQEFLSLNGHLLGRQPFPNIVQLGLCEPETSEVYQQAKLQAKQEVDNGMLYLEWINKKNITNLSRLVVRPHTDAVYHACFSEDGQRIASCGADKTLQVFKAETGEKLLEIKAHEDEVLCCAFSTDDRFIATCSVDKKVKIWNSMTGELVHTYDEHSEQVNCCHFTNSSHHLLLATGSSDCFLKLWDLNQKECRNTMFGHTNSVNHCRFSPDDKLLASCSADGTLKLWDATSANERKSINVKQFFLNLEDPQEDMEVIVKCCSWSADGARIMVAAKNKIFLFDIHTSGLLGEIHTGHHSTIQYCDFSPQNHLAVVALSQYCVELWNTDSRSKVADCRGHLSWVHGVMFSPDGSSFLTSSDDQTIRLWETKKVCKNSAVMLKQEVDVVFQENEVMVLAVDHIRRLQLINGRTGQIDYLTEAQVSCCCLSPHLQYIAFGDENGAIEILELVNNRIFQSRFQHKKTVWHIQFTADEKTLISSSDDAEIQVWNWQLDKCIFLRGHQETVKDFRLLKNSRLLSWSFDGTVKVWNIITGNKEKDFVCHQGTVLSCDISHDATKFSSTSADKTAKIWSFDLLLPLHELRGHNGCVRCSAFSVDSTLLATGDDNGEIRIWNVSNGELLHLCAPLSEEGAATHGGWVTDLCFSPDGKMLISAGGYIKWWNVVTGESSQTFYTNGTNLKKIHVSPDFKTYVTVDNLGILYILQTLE

[5] = DRD fibroblast viability loss – cell-based, non-viral oncogenic, luminescence, dose response (AID 1934); assay type: functional; conditions: Homo sapiens
BJ = test: growth inhibition of engineered Ras-driven BJ cells – cell-based, alamar blue fluorescence, cherrypicked samples, dose response (AID 2631); assay type: functional; conditions: Homo sapiens;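 note: confirmatory dose-response assay in RAS-dependent BJ fibroblasts engineered with TERT, LT and ST, with cytotoxicity read by fluorescence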

Compound: Cn1nc(-c2ccc(Cl)cc2)nc2c(=O)n(C)c(=O)nc1-2
EC50 [1]: 5.59 µM (inconclusive)
EC50 [2]: 16.8 µM (active)

Compound: SC1=Nc2ccccc2C1
EC50 (Hexokinase HKDC1): 18 µM (active)

EC50 [3]: > 104 µM (inactive)
Compound: NS(=O)(=O)c1ccc(NC(=O)COC(=O)c2ccc([N+](=O)[O-])s2)cc1

IC50 [4]: 3.62 µM (active)
Compound: CCCCNc1cc(NC(C)=O)cc2cc(OC)c(OC)cc12

Compound: O=C(Cc1ccc([N+](=O)[O-])cc1)N/N=C/c1ccc([N+](=O)[O-])o1
EC50 [5]: 38.3 µM (active)
EC50 (BJ): 7.85 µM (active)
